Laboratory results taken from patent publication US20260285898A1, “SAPONIN DERIVATIVES AS ADJUVANTS AND PHOTOAFFINITY PROBES” (ASOCIACIÓN CENTRO DE INVESTIGACIÓN COOPERATIVE EN …, priority 2023, published 2026).

Experiment: Initial toxicity assessment in mice by median weight loss after injection
Conditions: monitored after each injection (1st, 2nd and 3rd booster dose); s.c., saponin 20 μg/mouse with OVA 10 μg/mouse; FIG. 1
Experimental: Groups of five mice (C57BL/6, female, 6-8 weeks old) were vaccinated subcutaneously three times […] (days 0, 14, and 28) with endotoxin-free OVA (EndoFit™ Ovalbumin, Invitrogen) (10 μg/mouse) in phosphate-buffered saline (PBS, 100 μL) either alone (no-adjuvant control group) or with the synthetic saponins (20 μg/mouse). To analyze the antibody responses over time, mice were bled via the submandibular vein at the indicated pre- (day −1) and post-vaccination timepoint (day 21), and by cardiac puncture at the experimental endpoint (day 35). Blood was collected in BD Microtainer® tubes (Clot Activator/SST™ Gel) and centrifuged at 7500 g for 10 min, after which serum was harvested and stored at −20° C. until further analysis.
As a standard initial overall assessment of the potential toxicity of the saponins, in addition to visual inspection for potential signs of discomfort, the weight loss of each group of mice was monitored before and after each immunization. The median percentage weight change at different timepoints post-injection was determined and analyzed.
Mouse weight loss was monitored after each injection (1st, 2nd and 3rd (booster dose)).

SMILES: CC1OC(OC2C(OC(=O)C34CCC(C)(C)CC3C3=CCC5C6(C)CCC(OC7OC(C(=O)O)C(O)C(OC8OCC(O)C(O)C8O)C7OC7OC(CO)C(O)C(O)C7O)C(C)(C=O)C6CCC5(C)C3(C)CC4O)OC(CO)C(NC(=O)CCCCCNC(=O)c3ccc(C(=O)c4ccc(C(=O)NCCOCCOCCOCCOCCOCCNC(=O)CCCCC5SCC6NC(=O)NC65)cc4)cc3)C2O)C(O)C(O)C1OC1OCC(O)C(O)C1O (stereo not shown) [BTS-25-BP]
- Mouse weight loss (toxicity): about 2%
